Reference: patent publication US20230150981A1, “N-HETEROARYLALKYL-2-(HETEROCYCLYL AND HETEROCYCLYLMETHYL) ACETAMIDE DERIVATIVES AS SSTR4 AGONISTS” (Takeda Pharmaceutical Compnay Limited, priority 2020, published 2023)

The molecules below were run against T1, SSTR4 (Homo sapiens, UniProt P31391) (assay: Inhibition of forskolin stimulated cAMP in CHO-K1 cells overexpressing SSTR4). Settings: read-out: SSTR4 Activity pEC50 (converted).
T1 construct: host or cells: CHO-K1
Type: cell-based
Method: Inhibition of Forskolin Stimulated cAMP in Cells Overexpressing SSTR4
This cell-based assay measures the ability of compounds to inhibit forskolin stimulated cAMP in CHO-K1 cells overexpressing SSTR4. CHO-K1 cells overexpressing SSTR4 (CHO-SSTR4) are purchased from DiscoveRx (product code 95-0059C2). The CHO-SSTR4 cells are maintained in F12K media with 10% Fetal Bovine Serum (Hyclone), 1% Pen/Strep (Life Technologies), and 800 μg/mL G418 (Life Technologies). To perform the assay, 3000 cells are plated per well in white 384-well plate (Corning 3570) in 50 μL complete media and the cells are allowed to attach for 16 hours in a 37° C., 5% CO2 incubator. The next day, the culture media is removed from the cells and the cells are washed (added then removed) with Krebs Ringer Buffer (ZenBio, KRB-1000 mL). Test compounds are suspended in DMSO and diluted in stimulation buffer: Krebs Ringer Buffer plus 0.5% BSA (Roche), 300 μM IBMX (Sigma), and 350 nM forskolin (Sigma). The cells are incubated in 10 μL compound/stimulation buffer for 30 minutes at room temperature. Cellular cAMP levels are detected with a HTRF LANCE Ultra cAMP kit (Perkin Elmer, catalog number TRF0264).
The assay is performed in accordance with the manufacturer's instructions. Five μL of diluted Eu-W8044 labeled streptavidin (dilution: 1:50 in cAMP Detection Buffer) is added to each well. Then 5 μL of diluted biotin cAMP (dilution: 1:150 in cAMP Detection Buffer) is added to each well. The plates are covered and allowed to incubate for 60 minutes at room temperature on a shaker. HTRF (665 nm/615 nm) is read on a Perkin Elmer ENVISION plate reader. The pEC50 values are generated using Activity Base for Screening Data Management.

T1 sequence (P31391 whole entry): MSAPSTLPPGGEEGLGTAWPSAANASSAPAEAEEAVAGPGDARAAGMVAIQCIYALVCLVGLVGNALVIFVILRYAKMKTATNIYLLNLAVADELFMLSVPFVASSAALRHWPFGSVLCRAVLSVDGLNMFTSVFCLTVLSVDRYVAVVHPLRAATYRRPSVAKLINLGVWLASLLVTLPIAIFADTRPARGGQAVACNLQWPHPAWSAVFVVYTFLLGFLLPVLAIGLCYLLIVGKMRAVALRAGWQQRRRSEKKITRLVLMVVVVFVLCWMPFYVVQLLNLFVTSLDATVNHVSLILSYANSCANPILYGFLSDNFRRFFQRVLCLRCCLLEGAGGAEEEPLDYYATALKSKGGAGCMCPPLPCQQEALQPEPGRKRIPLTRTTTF

| Compound | EC50 [nM] |
| --- | --- |
| C[C@H](NC(=O)CC1CCCCN1C)c1ccc(F)cc1 (stereo partly drawn) [Example 61, N-((S)-1-(4-fluorophenyl)ethyl)-2-(1-methylpiperidin-2-yl)acetamide] | 158 |
| CCN1CCCC1CC(=O)NC1(COc2ncccc2C)CCCC1 (stereo not drawn) [Example 65, 2-(1-ethylpyrrolidin-2-yl)-N-(1-(((3-methylpyridin-2-yl)oxy)methyl)cyclopentyl)acetamide] | 251 |
| COc1ccccc1CC1(NC(=O)CC2CCCCN2C)CC1 (stereo not drawn) [Example 74, N-(1-(2-methoxybenzyl)cyclopropyl)-2-(1-methylpiperidin-2-yl)acetamide] | 31.6 |
| Cc1cccc(CC2(NC(=O)C[C@@H]3CCCN3C)CC2)c1 [Example 81, (S)-N-(1-(3-methylbenzyl)cyclopropyl)-2-(1-methylpyrrolidin-2-yl)acetamide] | 398 |
| CN1CCC[C@H]1CC(=O)NC(C)(C)c1cccc(F)c1F [Example 82, (S)-N-(2-(2,3-difluorophenyl)propan-2-yl)-2-(1-methylpyrrolidin-2-yl)acetamide] | 316 |
| CN1CCC[C@H]1CC(=O)NC(C)(C)c1cccc(Cl)c1F [Example 83, (S)-N-(2-(3-chloro-2-fluorophenyl)propan-2-yl)-2-(1-methylpyrrolidin-2-yl)acetamide] | 251 |
| Cc1c(F)cccc1C(C)(C)NC(=O)C[C@@H]1CCCN1C [Example 89, (S)-N-(2-(3-fluoro-2-methylphenyl)propan-2-yl)-2-(1-methylpyrrolidin-2-yl)acetamide] | 126 |
| Cc1c(F)cccc1C(C)(C)NC(=O)C[C@H]1CCCN1C [Example 90, (R)-N-(2-(3-fluoro-2-methylphenyl)propan-2-yl)-2-(1-methylpyrrolidin-2-yl)acetamide] | 63.1 |

Now from value to molecule:

| EC50 [nM] | Compound |
| --- | --- |
| 100 | CCN1CCCC1CC(=O)NC1(COc2ncccc2C)CCC1 (stereo not drawn) [Example 64, 2-(1-ethylpyrrolidin-2-yl)-N-(1-(((3-methylpyridin-2-yl)oxy)methyl)cyclobutyl)acetamide] |
| 25.1 | Cc1cccnc1OCC(C)(C)NC(=O)CC1CCC(C)N1C (stereo not drawn) [Example 68, 2-(1,5-dimethylpyrrolidin-2-yl)-N-(2-methyl-1-((3-methylpyridin-2-yl)oxy)propan-2-yl)acetamide] |
| 25.1 | Cc1cccnc1OCC(C)(C)NC(=O)CC1CCCCN1C (stereo not drawn) [Example 69, N-(2-methyl-1-((3-methylpyridin-2-yl)oxy)propan-2-yl)-2-(1-methylpiperidin-2-yl)acetamide] |
| 20 | CN1CCC[C@H]1CC(=O)NC(C)(C)COc1ncccc1OC(F)(F)F [Example 72, (S)-N-(2-methyl-1-((3-(trifluoromethoxy)pyridin-2-yl)oxy)propan-2-yl)-2-(1-methylpyrrolidin-2-yl)acetamide] |
| 39.8 | CN1CCC[C@H]1CC(=O)NC(C)(C)COc1ncccc1C1CC1 [Example 73, (S)-N-(1-((3-cyclopropylpyridin-2-yl)oxy)-2-methylpropan-2-yl)-2-(1-methylpyrrolidin-2-yl)acetamide] |
| 398 | COc1ncccc1CC1(NC(=O)CC2CCCCN2C)CC1 (stereo not drawn) [Example 79, N-(1-((2-methoxypyridin-3-yl)methyl)cyclopropyl)-2-(1-methylpiperidin-2-yl)acetamide] |
| 100 | CN1CCC[C@@H]1CC(=O)NC(C)(C)COc1ncccc1C(F)F [Example 84, (R)-N-(1-((3-(difluoromethyl)pyridin-2-yl)oxy)-2-methylpropan-2-yl)-2-(1-methylpyrrolidin-2-yl)acetamide] |
| 200 | CN1CCC[C@H]1CC(=O)NC(C)(C)COc1ncccc1C(F)F [Example 85] |
| 251 | Cc1cccc(C(C)(C)NC(=O)C[C@@H]2CCCN2C)c1F [Example 86, (S)-N-(2-(2-fluoro-3-methylphenyl)propan-2-yl)-2-(1-methylpyrrolidin-2-yl)acetamide] |
| 316 | Cc1cccc(C(C)(C)NC(=O)C[C@H]2CCCN2C)c1F [Example 87, (R)-N-(2-(2-fluoro-3-methylphenyl)propan-2-yl)-2-(1-methylpyrrolidin-2-yl)acetamide] |
